What was measured:
[1] = molecular target: T1, Serine/threonine-protein kinase ULK2 (Homo sapiens) (UniProt Q8IYT8); assay: Selectivity interaction (KinomeScan (DiscoverX)) EUB0000607a ULK2; details: at 10 µM
T1 sequence (whole entry): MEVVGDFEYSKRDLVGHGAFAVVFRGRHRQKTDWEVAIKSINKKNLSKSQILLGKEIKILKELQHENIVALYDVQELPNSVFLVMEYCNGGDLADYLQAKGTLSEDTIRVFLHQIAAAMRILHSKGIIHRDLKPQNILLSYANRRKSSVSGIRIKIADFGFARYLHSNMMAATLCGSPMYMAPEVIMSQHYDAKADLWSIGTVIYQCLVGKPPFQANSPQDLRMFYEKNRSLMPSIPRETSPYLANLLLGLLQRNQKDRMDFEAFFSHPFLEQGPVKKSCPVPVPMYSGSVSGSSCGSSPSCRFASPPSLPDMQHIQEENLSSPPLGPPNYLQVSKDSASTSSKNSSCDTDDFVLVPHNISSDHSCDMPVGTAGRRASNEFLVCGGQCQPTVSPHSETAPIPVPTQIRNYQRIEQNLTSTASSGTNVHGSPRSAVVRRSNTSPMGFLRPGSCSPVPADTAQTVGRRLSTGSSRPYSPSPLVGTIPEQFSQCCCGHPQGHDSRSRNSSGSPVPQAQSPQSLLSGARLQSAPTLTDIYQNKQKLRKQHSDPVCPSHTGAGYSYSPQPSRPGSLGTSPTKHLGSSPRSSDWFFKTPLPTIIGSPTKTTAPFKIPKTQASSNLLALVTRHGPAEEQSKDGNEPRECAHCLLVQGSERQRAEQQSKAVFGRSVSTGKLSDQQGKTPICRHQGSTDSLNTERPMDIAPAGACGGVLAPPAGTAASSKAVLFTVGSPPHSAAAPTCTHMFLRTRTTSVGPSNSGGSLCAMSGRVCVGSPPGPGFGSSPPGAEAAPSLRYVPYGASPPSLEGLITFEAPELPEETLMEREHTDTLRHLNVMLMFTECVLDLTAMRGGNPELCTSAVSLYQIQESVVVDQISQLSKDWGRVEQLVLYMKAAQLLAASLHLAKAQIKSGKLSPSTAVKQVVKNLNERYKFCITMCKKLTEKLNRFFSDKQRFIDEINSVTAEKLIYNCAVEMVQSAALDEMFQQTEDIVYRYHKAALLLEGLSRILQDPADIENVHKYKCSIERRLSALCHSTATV

[2] = molecular target: T2, Phosphatidylinositol 4,5-bisphosphate 3-kinase catalytic subunit delta isoform (Homo sapiens) (UniProt O00329); assay: Selectivity interaction (KinomeScan (DiscoverX)) EUB0001619a PIK3CD; details: at 1 µM
T2 sequence (whole entry): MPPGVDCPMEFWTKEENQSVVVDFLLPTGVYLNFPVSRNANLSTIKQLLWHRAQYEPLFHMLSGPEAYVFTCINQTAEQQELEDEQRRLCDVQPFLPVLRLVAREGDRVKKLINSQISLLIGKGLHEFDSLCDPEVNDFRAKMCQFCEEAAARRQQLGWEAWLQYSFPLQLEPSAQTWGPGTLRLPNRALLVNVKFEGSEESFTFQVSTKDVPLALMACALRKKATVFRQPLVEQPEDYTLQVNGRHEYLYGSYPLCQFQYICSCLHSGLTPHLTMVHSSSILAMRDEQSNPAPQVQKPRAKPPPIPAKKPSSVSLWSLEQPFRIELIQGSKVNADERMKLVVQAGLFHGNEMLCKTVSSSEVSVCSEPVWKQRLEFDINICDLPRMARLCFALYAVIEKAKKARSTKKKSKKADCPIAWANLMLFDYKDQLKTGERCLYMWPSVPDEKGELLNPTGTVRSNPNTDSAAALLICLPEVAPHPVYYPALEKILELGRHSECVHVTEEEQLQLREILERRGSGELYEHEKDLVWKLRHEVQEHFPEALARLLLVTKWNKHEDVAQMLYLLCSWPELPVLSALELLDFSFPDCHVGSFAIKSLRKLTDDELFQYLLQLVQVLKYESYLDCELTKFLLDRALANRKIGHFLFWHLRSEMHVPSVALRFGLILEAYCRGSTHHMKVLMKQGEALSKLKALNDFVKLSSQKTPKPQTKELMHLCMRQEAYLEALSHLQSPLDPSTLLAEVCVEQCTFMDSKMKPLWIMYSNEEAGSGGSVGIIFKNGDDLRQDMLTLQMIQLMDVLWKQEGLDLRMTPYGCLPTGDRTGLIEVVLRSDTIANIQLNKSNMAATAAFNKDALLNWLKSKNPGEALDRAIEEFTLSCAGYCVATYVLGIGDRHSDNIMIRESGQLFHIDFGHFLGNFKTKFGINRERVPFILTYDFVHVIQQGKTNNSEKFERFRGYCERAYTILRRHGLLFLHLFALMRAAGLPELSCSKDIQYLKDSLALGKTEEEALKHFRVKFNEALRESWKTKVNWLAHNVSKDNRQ

[3] = molecular target: 5'-AMP-activated protein kinase catalytic subunit alpha-2 (Homo sapiens) (UniProt P54646); assay: Selectivity interaction (ActivX KiNativ screen (kinase selectivity in THP-1 cell lysates)) EUB0000639a PRKAA2; format: subcellular; details: lysate
[4] = molecular target: T3, Interleukin-1 receptor-associated kinase 3 (Homo sapiens) (UniProt Q9Y616); assay: Selectivity interaction (ActivX KiNativ screen (kinase selectivity in THP-1 cell lysates)) EUB0000639a IRAK3; format: subcellular; details: lysate, at 0.04 µM
T3 sequence (whole entry): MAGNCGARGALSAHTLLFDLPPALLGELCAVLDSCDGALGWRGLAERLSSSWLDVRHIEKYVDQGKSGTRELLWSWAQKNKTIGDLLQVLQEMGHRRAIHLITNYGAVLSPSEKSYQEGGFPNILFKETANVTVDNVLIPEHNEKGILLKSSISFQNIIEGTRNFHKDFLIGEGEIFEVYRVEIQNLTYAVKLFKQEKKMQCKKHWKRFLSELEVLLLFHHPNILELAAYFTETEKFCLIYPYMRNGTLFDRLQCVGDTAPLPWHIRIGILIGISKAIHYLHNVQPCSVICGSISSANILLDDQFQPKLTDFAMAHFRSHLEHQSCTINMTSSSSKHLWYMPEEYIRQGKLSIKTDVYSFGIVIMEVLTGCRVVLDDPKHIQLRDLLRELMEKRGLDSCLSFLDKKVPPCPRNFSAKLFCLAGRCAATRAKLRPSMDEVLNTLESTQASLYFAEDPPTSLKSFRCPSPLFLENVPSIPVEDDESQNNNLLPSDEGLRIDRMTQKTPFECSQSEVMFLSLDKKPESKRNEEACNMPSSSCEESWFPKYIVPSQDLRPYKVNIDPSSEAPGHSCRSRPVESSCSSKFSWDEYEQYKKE

[5] = molecular target: Ribosomal protein S6 kinase alpha-6 (Homo sapiens, UniProt Q9UK32); assay: Selectivity interaction (KinomeScan (DiscoverX)) EUB0000229b RPS6KA6; details: at 10 µM
[6] = molecular target: Ribosomal protein S6 kinase alpha-3 (Homo sapiens, UniProt P51812); assay: Selectivity interaction (Kinase screening (Nanosyn)) EUB0000604a RPS6KA3
Chain of Ribosomal protein S6 kinase alpha-3 (P51812 whole entry): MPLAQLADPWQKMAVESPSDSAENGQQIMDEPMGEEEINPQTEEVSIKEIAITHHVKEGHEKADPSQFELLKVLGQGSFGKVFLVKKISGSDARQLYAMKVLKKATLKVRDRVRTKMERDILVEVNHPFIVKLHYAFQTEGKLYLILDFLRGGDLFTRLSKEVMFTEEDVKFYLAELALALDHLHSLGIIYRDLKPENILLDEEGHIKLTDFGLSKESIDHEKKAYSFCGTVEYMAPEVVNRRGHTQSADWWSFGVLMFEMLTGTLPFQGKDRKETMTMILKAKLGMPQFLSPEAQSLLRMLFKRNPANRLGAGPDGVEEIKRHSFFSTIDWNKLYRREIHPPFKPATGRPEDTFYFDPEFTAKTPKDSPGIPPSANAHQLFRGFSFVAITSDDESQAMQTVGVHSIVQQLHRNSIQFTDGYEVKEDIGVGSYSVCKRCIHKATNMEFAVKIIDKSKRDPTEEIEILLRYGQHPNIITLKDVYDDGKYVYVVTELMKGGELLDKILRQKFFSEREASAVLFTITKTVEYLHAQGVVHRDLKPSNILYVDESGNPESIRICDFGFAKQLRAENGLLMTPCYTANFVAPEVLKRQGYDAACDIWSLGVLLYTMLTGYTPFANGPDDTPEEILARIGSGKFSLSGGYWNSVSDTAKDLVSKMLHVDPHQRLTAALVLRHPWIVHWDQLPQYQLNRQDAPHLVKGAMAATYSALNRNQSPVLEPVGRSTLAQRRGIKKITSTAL

Chain of 5'-AMP-activated protein kinase catalytic subunit alpha-2 (Homo sapiens) (P54646 whole entry, looked up): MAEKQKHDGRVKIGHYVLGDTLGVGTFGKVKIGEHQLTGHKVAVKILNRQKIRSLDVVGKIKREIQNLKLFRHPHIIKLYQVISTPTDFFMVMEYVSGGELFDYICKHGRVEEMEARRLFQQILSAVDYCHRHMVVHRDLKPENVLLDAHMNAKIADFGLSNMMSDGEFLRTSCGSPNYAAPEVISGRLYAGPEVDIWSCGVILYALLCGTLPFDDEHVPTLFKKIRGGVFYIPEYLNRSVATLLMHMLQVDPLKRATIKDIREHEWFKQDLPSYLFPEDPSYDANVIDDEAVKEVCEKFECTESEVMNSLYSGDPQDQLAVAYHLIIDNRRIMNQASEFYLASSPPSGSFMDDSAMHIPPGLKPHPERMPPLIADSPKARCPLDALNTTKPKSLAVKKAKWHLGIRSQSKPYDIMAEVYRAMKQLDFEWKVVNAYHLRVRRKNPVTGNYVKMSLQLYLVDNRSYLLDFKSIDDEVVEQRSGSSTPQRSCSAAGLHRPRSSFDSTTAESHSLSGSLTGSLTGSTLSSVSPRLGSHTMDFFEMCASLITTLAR
Chain of Ribosomal protein S6 kinase alpha-6 (Q9UK32 whole entry): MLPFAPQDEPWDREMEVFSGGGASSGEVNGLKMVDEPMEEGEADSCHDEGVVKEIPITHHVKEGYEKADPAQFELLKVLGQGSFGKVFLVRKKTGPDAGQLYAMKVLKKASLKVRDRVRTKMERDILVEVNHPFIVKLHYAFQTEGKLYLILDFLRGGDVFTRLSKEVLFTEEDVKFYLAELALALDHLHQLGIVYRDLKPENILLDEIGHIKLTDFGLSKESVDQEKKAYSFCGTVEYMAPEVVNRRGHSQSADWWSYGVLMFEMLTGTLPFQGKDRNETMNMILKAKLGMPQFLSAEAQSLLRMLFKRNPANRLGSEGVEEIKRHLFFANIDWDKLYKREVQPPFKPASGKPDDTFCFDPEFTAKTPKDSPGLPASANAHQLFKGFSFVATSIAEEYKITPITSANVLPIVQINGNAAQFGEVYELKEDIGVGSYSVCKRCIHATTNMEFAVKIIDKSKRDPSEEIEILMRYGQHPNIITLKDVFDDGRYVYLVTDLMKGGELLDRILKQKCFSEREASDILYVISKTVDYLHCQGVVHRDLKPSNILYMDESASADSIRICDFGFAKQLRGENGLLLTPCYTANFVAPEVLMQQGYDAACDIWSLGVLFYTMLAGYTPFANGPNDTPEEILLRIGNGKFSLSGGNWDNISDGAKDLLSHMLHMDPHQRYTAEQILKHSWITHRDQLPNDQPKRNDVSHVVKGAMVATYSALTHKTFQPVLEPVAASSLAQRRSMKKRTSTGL

CNC(=O)Nc1ccc(-c2nc(N3CC4CCC(C3)O4)c3cnn(C4CCC5(CC4)OCCO5)c3n2)cc1
% of control [1]: 90%

N#Cc1cccc(-c2c[nH]c3ncnc(N4CCOCC4)c23)c1
% of control [2]: 100%

CC[C@@H]1[C@H](F)C(=O)N[C@@H]1COc1nccc2cc(C(N)=O)c(OC)cc12 [ZIMLOVISERTIB]
% of inhibition ([3]; at 0.01 µM): 16% | % of inhibition ([3]; at 0.04 µM): 21.7% | % of inhibition ([3]; at 0.2 µM): 11.2% | % of inhibition ([3]; at 1 µM): 11.8% | % of inhibition ([3]; at 5 µM): 28.8% | % of inhibition [4]: -1.7%

COc1cc(N(C)c2ccnc3ccc(C(F)(F)F)cc23)cc(OC)c1OC
% binding [5]: 81%

Cc1cnc(Nc2ccc(F)cc2Cl)nc1-c1c[nH]c(C(=O)N[C@H](CO)c2cccc(Cl)c2)c1
% of inhibition [6]: 6%

— ChEMBL document CHEMBL5465560, “Selectivity Literature for EUbOPEN Chemogenomic Library” (2024)
